The nature of data set [1]: pKa of synthetic acids, used for separation by titration. It counts as physicochemical.
The target in data set [2] is D2-like dopamine receptors (Sus scrofa, UniProt A0ACM8QMZ9). The following applies: porcine striatal binding, D1-like vs D2-like.
Data set [3] has as its target D1-like dopamine receptors (Sus scrofa, UniProt P50130). It counts as binding. The following applies: porcine striatum; for Fold D1-like Selectivity: ratio of D2-like Ki to D1-like Ki.

The values below come from PMC3515654 (ChemMedChem, 2011).

Chain of D1-like dopamine receptors (P50130 whole entry): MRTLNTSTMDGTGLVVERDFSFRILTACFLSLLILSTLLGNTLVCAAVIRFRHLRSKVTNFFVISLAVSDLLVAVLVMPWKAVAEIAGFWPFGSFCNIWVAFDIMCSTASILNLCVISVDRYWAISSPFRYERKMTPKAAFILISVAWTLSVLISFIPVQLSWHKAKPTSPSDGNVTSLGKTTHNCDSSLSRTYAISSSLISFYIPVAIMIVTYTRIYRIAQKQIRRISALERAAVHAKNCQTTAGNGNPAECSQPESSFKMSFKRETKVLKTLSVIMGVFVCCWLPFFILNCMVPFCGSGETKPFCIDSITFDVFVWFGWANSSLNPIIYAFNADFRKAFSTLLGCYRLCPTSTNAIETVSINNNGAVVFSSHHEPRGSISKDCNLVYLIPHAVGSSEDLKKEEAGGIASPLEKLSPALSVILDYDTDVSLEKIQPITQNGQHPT
Chain of D2-like dopamine receptors (A0ACM8QMZ9 1-443): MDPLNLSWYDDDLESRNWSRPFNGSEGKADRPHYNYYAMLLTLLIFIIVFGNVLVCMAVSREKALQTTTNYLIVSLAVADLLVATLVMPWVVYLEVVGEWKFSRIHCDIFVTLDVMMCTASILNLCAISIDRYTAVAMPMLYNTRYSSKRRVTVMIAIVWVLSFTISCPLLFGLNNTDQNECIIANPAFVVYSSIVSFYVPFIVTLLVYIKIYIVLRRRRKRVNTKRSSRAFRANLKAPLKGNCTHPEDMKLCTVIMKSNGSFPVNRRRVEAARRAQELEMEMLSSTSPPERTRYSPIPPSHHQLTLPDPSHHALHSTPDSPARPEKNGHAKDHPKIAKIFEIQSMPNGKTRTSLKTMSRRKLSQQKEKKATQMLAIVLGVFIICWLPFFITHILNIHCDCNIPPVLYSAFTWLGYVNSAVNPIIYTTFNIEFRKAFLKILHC

As a reminder, the pKa is the pH at which an ionisable group is half protonated. Take `COc1cccc(C2OC(=O)CC2C(=O)O)c1OC` (stereo not drawn) [compound 18, 2-(2,3-Dimethoxyphenyl)-5-oxo-tetrahydrofuran-3-carboxylic acid]: the pKa in data set [1] is roughly 3.6.
As to `Cl.NCC1CCOc2c1ccc(O)c2O` (stereo not drawn) [2a, 7,8-Dihydroxy-4-aminomethylchroman hydrochloride], the “Receptor subtype selectivity” value in data set [2] is “selectivity for D2-like receptors”.
For the compound `NC[C@@H]1O[C@H](c2ccccc2)Cc2c1ccc(O)c2O` [1d, reference compound], the “Fold D1-like Selectivity” value in data set [3] came out at 92 fold.
Same read-out and setting: the result for `NC[C@@H]1O[C@H](C23CC4CC(CC(C4)C2)C3)Cc2c1ccc(O)c2O` [1c, reference compound] reads 480 fold.
For `Br.NC[C@H]1C[C@@H](C23CC4CC(CC(C4)C2)C3)Cc2c1ccc(O)c2O` (relative stereo) [3c, Cis-5-(aminomethyl)-7-adamantyl-5,6,7,8-tetrahydronaphthalene-1,2-diol hydrobromide], the “Fold higher binding affinity at D1-like receptors compared to 2c” value in data set [3] (relative to 2c) was roughly 20 fold. In addition, in data set [3], the “Fold D1-like Selectivity” value was determined as 55 fold.
